Test results published in EP0902088A2, “Peptides with antiproliferative properties” (Radulescu, Razvan T., priority 1996, dated 1999).
Entries after “also recorded” stand apart in the source; their conditions may differ.

Key:
[1] = system: SAOS-2-Zellen; test: Cell cycle analysis by FACS in SAOS-2 osteosarcoma cells; format: cell-based, human
From the text: (§1) Die eine Versuchsanordnung beinhaltet Versuche mit der humanen intaktes Retinoblastomprotein enthaltenden Mammakarzinom-Zell-Linie MCF-7 bzw. der humanen defektes Retinoblastomprotein enthaltenden Osteosarkom-Zell-Linie SAOS-2. Man sät die Zellen zuerst in 12-well-Platten 100.000 (= Hunderttausend) Zellen/-well/ml RPMI oder DMEM/10% FCS) aus, läßt sie 24 Stunden adhärieren, hungert sie anschließend 3 Tage in DMEM ohne FCS mit dem Zweck, die Zellen in der G0/G1-Phase zu synchronisieren, und stimuliert sie dann entweder mit 10% FCS oder 10^-8 M IGF-1 oder 10^-6 M Insulin für 24 Stunden, wobei der Effekt der jeweils zugegebenen Peptide auf die jeweilige Stimulation, die ein Maß für die Zellteilungsrate ist, untersucht wird. Die Kontrollgruppe (G0/G1-synchronisierte Zellen) wird zum Zeitpunkt 0 nach der dreitägigen Hungerphase fixiert, die restlichen Zellen (+/- Peptid) werden nach 24 Stunden fixiert. Daraufhin werden die Zellen zwecks Zellzyklusanalyse im FACS analysiert. Analoge Methoden finden sich beispielsweise bei R. Fahraeus et al., Current Biology, 1996, Vol. 6, No. 1, pp 84-91 sowie bei L. Zhu et al., Genes & Development, 1993, Vol. 7, pp. 1111-1125.

[2] = system: MCF-7-Zellen; test: Cell cycle analysis by FACS in MCF-7 breast carcinoma cells; format: cell-based, human
From the text: as §1, with “[…],” for “hungert sie anschließend 3 Tage in DMEM ohne FCS mit dem Zweck, die Zellen in der G0/G1-Phase zu synchronisieren,”

[3] = system: normale humane mononukleäre Zellen des peripheren Blutes; test: Effect on normal peripheral blood mononuclear cells; format: cell-based, human; conditions: peptide 10^-5, 24 h incubation
From the text: Fig. 15 zeigt, daß das erfindungsgemäße Peptid P3 [10^-5] keinen Effekt auf normale humane mononukleäre Zellen des peripheren Blutes hat, unabhängig davon, ob diese sich in einem ruhenden (a) oder aktivierten (b) Zustand befinden. […] Die Inkubation der Zellen mit P3 erfolgte für einen Zeitraum von 24 Stunden.

[4] = system: CCRF-CEM/ACT 400resistent-Zellen; test: Cytotoxicity by trypan blue counting in CCRF-CEM/ACT 400 (resistant) leukaemia cells; format: cell-based; conditions: asynchronous CCRF-CEM/ACT 400 (resistant) in RPMI with 10 % FCS; peptide 10^-5
From the text: (§2) Die zweite Versuchsanordnung betrifft die Leukämie-Zell-Linien K562 und CCRF-CEM und CCRF-CEM/ACT400. Hierbei wurden jeweils 100.000 asynchrone Zellen/well/ml RPMI/10% FCS für 48 Stunden mit den jeweiligen Peptiden in 6-well-Platten inkubiert. Als Readout gilt die Anzahl der mit Hilfe der Trypanblaufärbung (L.D. Attardi et al., The EMBO Journal, 1996, Vol. 15, No. 14, pp. 3693-3701 und M.K. Reeder & H.C. Isom, Cell Growth & Differentiation, 1996, Vol. 7, pp. 449-460) nach 48 Stunden Inkubationszeit festgestellten toten Zellen/200 ausgezählte Zellen. Je mehr tote Zellen, desto zytotoxischer das Peptid und damit umso effektiver.

[5] = system: CCRF-CEMsensitiv; test: Cytotoxicity by trypan blue counting in CCRF-CEM (sensitive) leukaemia cells; format: cell-based; conditions: asynchronous CCRF-CEM (sensitive) in RPMI with 10 % FCS; peptide 10^-5
From the text: as §2

[6] = system: K562-Zellen; test: Cytotoxicity by trypan blue counting in K562 leukaemia cells; format: cell-based; conditions: asynchronous K562 in RPMI with 10 % FCS, peptide 10^-5M, several time points
From the text: Fig. 13 zeigt, daß der zytotoxische Effekt des erfindungsgemäßen Peptids P3 [10^-5M] auf asynchrone K562-Zellen, die in RPMI-Zellkulturmedium mit 10 % FCS inkubiert wurden, zeitabhängig ist. Die Ergebnisse wurden aufgetragen als lebende mit P3 behandelte Zellen als Prozent der lebenden mit P3 nicht behandelten Zellen. Die Zahl der lebenden Zellen wurde ermittelt, indem man mindestens 200 Zellen mit der Trypanblaumethode zu jedem angegebenen Zeitpunkt auszählte.
as §2

[7] = SAOS-2 stimulated with 10 % FCS, peptide 5 x 10^-5M
[8] = G0/G1-synchronised MCF-7 cells, serum-free, peptide 10^-5M
[9] = MCF-7 stimulated with IGF-1 10^-8M, peptide 10^-5M
[10] = MCF-7 stimulated with Insulin 10^-6M, peptide 10^-5M
[11] = G0/G1-synchronised SAOS-2 cells, serum-free, peptide 10^-5M
[12] = SAOS-2 stimulated with 10 % FS, peptide 10^-5M
[13] = MCF-7 stimulated with EGF 10^-8, peptide 10^-5M
[14] = MCF-7 stimulated with Östradiol (E2) 10^-9M, peptide 10^-5M
[15] = asynchronous MCF-7 in DMEM with 10 % FCS, peptide 10^-5M

## CC[C@H](C)[C@H](NC(=O)[C@H](CCCCN)NC(=O)[C@@H](NC(=O)[C@H](CCC(N)=O)NC(=O)[C@H](CCCNC(=N)N)NC(=O)[C@@H](NC(=O)[C@H](CCCCN)NC(=O)[C@H](CCCCN)NC(=O)[C@H](Cc1ccc(O)cc1)NC(=O)[C@H](Cc1ccccc1)NC(=O)[C@@H](N)CC(C)C)C(C)C)[C@@H](C)CC)C(=O)N[C@@H](Cc1c[nH]c2ccccc12)C(=O)N[C@@H](Cc1ccccc1)C(=O)N[C@@H](CCC(N)=O)C(=O)N[C@@H](CC(N)=O)C(=O)N[C@@H](CCCNC(=N)N)C(=O)N[C@@H](CCCNC(=N)N)C(=O)N[C@@H](CCSC)C(=O)N[C@@H](CCCCN)C(=O)N[C@@H](Cc1c[nH]c2ccccc12)C(=O)N[C@@H](CCCCN)C(=O)N[C@@H](CCCCN)C(=O)O [P6, NH2-LFYKKVRQIKIWFQNRRMKWKK-COOH]
[1]; [7]
  G1-Phase: Zunahme
  S-Phase: Abnahme
[2]; [8]
  G1-Phase: vermindert
  Morphologie der behandelten Zellen: entspricht der apoptotischer Zellen
  S-Phase: steigert
[2]; [9]
  G1-Phase: Zunahme
  Morphologie der behandelten Zellen: entspricht der apoptotischer Zellen
  S-Phase: Abnahme; also recorded: vermindern
[2]; [10]
  S-Phase: vermindern

## Penetratin [reference compound]
[1]; Tab 2, SAOS-2 stimulated with 10 % FCS
  Bremsen der Zellzyklusprogression von SAOS-2-Zellen: nicht
[2]; [9]
  S-Phase: keinen Effekt
[2]; [10]
  S-Phase: keinen Effekt

## H-LFYKKVPKKKRKV-OH [P5, NH2-L-F-Y-K-K-V-P-K-K-K-R-K-V-COOH]
[1]; [7]
  G1-Phase: Zunahme
  S-Phase: Abnahme
[2]; [8]
  G1-Phase: vermindert
  S-Phase: steigert
[2]; [9]
  S-Phase: vermindern
[2]; [10]
  S-Phase: vermindern

## CC(C)C[C@@H](NC(=O)[C@H](NC(=O)[C@H](N)CCCCN)C(C)C)C(=O)N[C@H](Cc1ccc(O)cc1)C(=O)N[C@H](Cc1ccccc1)C(=O)N[C@H](CCCCN)C(=O)NCC(=O)NCC(=O)NCC(=O)NCCCC[C@H](NC(=O)CNC(=O)CNC(=O)CNC(=O)[C@@H](CCCCN)NC(=O)[C@@H](Cc1ccccc1)NC(=O)[C@@H](Cc1ccc(O)cc1)NC(=O)[C@@H](CC(C)C)NC(=O)[C@H](NC(=O)[C@H](N)CCCCN)C(C)C)C(=O)N[C@H](CCCNC(=N)N)C(=O)NCC(=O)NCCCC[C@H](NC(=O)CNC(=O)[C@@H](CCCNC(=N)N)NC(=O)[C@H](CCCCNC(=O)CNC(=O)CNC(=O)CNC(=O)[C@@H](CCCCN)NC(=O)[C@@H](Cc1ccccc1)NC(=O)[C@@H](Cc1ccc(O)cc1)NC(=O)[C@@H](CC(C)C)NC(=O)[C@H](NC(=O)[C@H](N)CCCCN)C(C)C)NC(=O)CNC(=O)CNC(=O)CNC(=O)[C@@H](CCCCN)NC(=O)[C@@H](Cc1ccccc1)NC(=O)[C@@H](Cc1ccc(O)cc1)NC(=O)[C@@H](CC(C)C)NC(=O)[C@H](NC(=O)[C@H](N)CCCCN)C(C)C)C(=O)NCC(=O)O (racemic) [P7s, NH2-[dK-dV-dL-dY-dF-dK-GGG ]4-[lK-dR-G]2-lK-G-COOH]
[2]; [9]
  G1-Phase: Zunahme
  G2/M-Phase: Zunahme
  Morphologie der behandelten Zellen: entspricht der apoptotischer Zellen
  S-Phase: Abnahme

## CC(C)C[C@@H](N)C(=O)N[C@H](Cc1ccccc1)C(=O)N[C@H](Cc1ccc(O)cc1)C(=O)N[C@H](CCCCN)C(=O)N[C@H](CCCCN)C(=O)N[C@@H](C(=O)NCC(=O)NCC(=O)NCC(=O)NCCCC[C@H](NC(=O)CNC(=O)CNC(=O)CNC(=O)[C@H](NC(=O)[C@@H](CCCCN)NC(=O)[C@@H](CCCCN)NC(=O)[C@@H](Cc1ccc(O)cc1)NC(=O)[C@@H](Cc1ccccc1)NC(=O)[C@H](N)CC(C)C)C(C)C)C(=O)N[C@H](CCCNC(=N)N)C(=O)NCC(=O)NCCCC[C@H](NC(=O)CNC(=O)[C@@H](CCCNC(=N)N)NC(=O)[C@H](CCCCNC(=O)CNC(=O)CNC(=O)CNC(=O)[C@H](NC(=O)[C@@H](CCCCN)NC(=O)[C@@H](CCCCN)NC(=O)[C@@H](Cc1ccc(O)cc1)NC(=O)[C@@H](Cc1ccccc1)NC(=O)[C@H](N)CC(C)C)C(C)C)NC(=O)CNC(=O)CNC(=O)CNC(=O)[C@H](NC(=O)[C@@H](CCCCN)NC(=O)[C@@H](CCCCN)NC(=O)[C@@H](Cc1ccc(O)cc1)NC(=O)[C@@H](Cc1ccccc1)NC(=O)[C@H](N)CC(C)C)C(C)C)C(=O)NCC(=O)O)C(C)C (racemic) [P3, NH2-[dL-dF-dY-dK-dK-dV-GGG]4-[lK-dR-G]2-lK-G-COOH]
[1]; [11]
  G1-Phase: vermindert
  G2-Phase: erhöht
  Morphologie der behandelten Zellen: entspricht der apoptotischer Zellen
  S-Phase: erhöht
[1]; [12]
  G1-Phase: Zunahme
  Morphologie der behandelten Zellen: entspricht der apoptotischer Zellen
  S-Phase: Abnahme
[3]; activated state (b)
  Effekt auf normale humane mononukleäre Zellen des peripheren Blutes: keinen Effekt
[3]; resting or activated cells
  morphologische Veränderungen: keine morphologischen Veränderungen
[3]; resting state (a)
  Effekt auf normale humane mononukleäre Zellen des peripheren Blutes: keinen Effekt
[4]
  zytotoxischer Effekt: zytotoxisch
[5]
  zytotoxischer Effekt: zytotoxisch
[2]; [8]
  G1-Phase: vermindert
  Morphologie der behandelten Zellen: entspricht der apoptotischer Zellen
  S-Phase: erhöht
[2]; [13]
  G1-Phase: Zunahme
  G2-Phase: Zunahme
  Morphologie der behandelten Zellen: entspricht der apoptotischer Zellen
  S-Phase: Abnahme
[2]; MCF-7 stimulated with IGF-1 10^-8M, peptide 5 x 10^-6M
  Morphologie der behandelten Zellen: entspricht jeweils der apoptotischer Zellen
[2]; [9]
  G1-Phase: Zunahme
  G2/M-Phase: Zunahme
  Morphologie der behandelten Zellen: entspricht jeweils der apoptotischer Zellen
  S-Phase: Abnahme
[2]; MCF-7 stimulated with IGF-1 10^-8M, several peptide concentrations (Fig. 7)
  durch IGF-1 [10^-8M] bedingte Fortschreiten des Zellzyklus: in einer konzentrationsabhängigen Weise blockiert
[2]; [14]
  G1-Phase: Zunahme
  G2-Phase: Zunahme
  Morphologie der behandelten Zellen: entspricht der apoptotischer Zellen
  S-Phase: Abnahme
[2]; [15]
  G1-Phase: vermindert
  Morphologie der behandelten Zellen: entspricht der apoptotischer Zellen
  S-Phase: erhöht
[6]
  zytotoxische Effekt (lebende mit P3 behandelte Zellen als Prozent der lebenden mit P3 nicht behandelten Zellen): zeitabhängig

## NH2-KVLYFKRQIKIWFQNRRMKWKK-COOH (H-KVLYFKRQIKIWFQNRRMKWKK-OH) [P8]
[2]; [9]
  G1-Phase: Zunahme
  G2/M-Phase: Zunahme
  Morphologie der behandelten Zellen: entspricht der apoptotischer Zellen
  S-Phase: Abnahme
